Results published in US9458181B2, “Cathepsin cysteine protease inhibitors” (Merck Sharp & Dohme Corp., priority 2013, dated 2016).

Assays:
[1] = target: T1, human cathepsin F (Homo sapiens, UniProt Q9UBX1); experiment: Cathepsin F assay (hCat F); assay type: biochemical; conditions: human cathepsin F 10 nM, Z-Phe-Arg-AMC 8 μM, pH 5.5, 15 min preincubation; read-out: hCat F IP
T1 sequence (Q9UBX1 271-484): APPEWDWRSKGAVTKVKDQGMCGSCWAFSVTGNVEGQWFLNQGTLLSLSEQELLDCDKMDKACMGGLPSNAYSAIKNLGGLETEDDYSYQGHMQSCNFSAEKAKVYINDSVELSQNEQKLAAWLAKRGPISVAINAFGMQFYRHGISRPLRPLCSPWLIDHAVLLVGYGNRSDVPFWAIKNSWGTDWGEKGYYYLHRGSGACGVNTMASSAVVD
Summary of the method: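 Human cathepsin F (10 nM) in 50 mM MES pH 5.5, 2.5 mM EDTA, 2.5 mM DTT, 10% DMSO was preincubated 15 min at RT with compounds from a ⅓ DMSO dilution series (500–0.025 μM stocks). Z-Phe-Arg-AMC was added (8 μM as added), and AMC release was read by fluorescence (360/460 nm) for 20 min. Percent inhibition was fitted to a dose-response model.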

[2] = target: human cathepsin K (UniProt P43236); experiment: Cathepsin K Assay (hrbCat K); assay type: biochemical; conditions: human cathepsin K 0.4 nM, Z-Leu-Arg-AMC 8 μM, pH 5.5, 15 min preincubation; read-out: hrbCat K IP
Summary of the method: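 Human cathepsin K (0.4 nM) in pH 5.5 MES buffer with EDTA, DTT and 10% DMSO was preincubated 15 min at room temperature with compound from a ⅓ dilution series (500-0.025 μM DMSO stocks). Z-Leu-Arg-AMC (8 μM) was then added, and AMC release was followed fluorometrically (Ex 360/Em 460 nm) for 30 min; inhibition was fitted to a dose-response model.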

| SMILES | IC50 [1] [nM] | IC50 [2] [nM] |
| --- | --- | --- |
| CC(C)(c1nc(-c2ccc(N3CCS(=O)(=O)CC3)cc2)c([C@@H]2CCCC[C@H]2C(=O)NC2(C#N)CC2)o1)C(F)(F)F [Example 115, (1R,2R)-N-(1-cyanocyclopropyl)-2-(4-(4-(1,1-dioxidothiomorpholino)phenyl)-2-(1,1,1-trifluoro-2-methylpropan-2-yl)oxazol-5-yl)cyclohexanecarboxamide] | 1770 | 1.34 |
| N#CC1(NC(=O)[C@@H]2CC(F)(F)CC[C@H]2c2oc(C(F)(F)C(F)(F)F)nc2-c2ccc(C(=O)N3CCOCC3)cc2)CC1 [Example 119, (1R,2R)-N-(1-cyanocyclopropyl)-5,5-difluoro-2-(4-(4-(morpholine-4-carbonyl)phenyl)-2-(perfluoroethyl)oxazol-5-yl)cyclohexanecarboxamide] | 306 | 1.04 |
| N#CCNC(=O)[C@@H]1CC(F)(F)CC[C@H]1c1oc(C(F)(F)C(F)(F)F)nc1-c1ccc(C(=O)N2CCOCC2)cc1 [Example 136, (1R,2R)-N-(cyanomethyl)-5,5-difluoro-2-(4-(4-(morpholine-4-carbonyl)phenyl)-2-(perfluoroethyl)oxazol-5-yl)cyclohexanecarboxamide] | 319 | 0.74 |
| C[C@@H](C#N)NC(=O)[C@@H]1CC(F)(F)CC[C@H]1c1oc(C(F)(F)C(F)(F)F)nc1-c1ccc(C(=O)N2CCOCC2)cc1 [Example 137, (1R,2R)-N-((S)-1-cyanoethyl)-5,5-difluoro-2-(4-(4-(morpholine-4-carbonyl)phenyl)-2-(perfluoroethyl)oxazol-5-yl)cyclohexanecarboxamide] | 295 | 0.39 |
| CS(=O)(=O)N1CCN(C(=O)c2ccc(-c3nc(C(F)(F)C(F)(F)F)oc3[C@@H]3CCC(F)(F)C[C@H]3C(=O)NC3(C#N)CC3)cc2)CC1 [Example 140, (1R,2R)-N-(1-cyanocyclopropyl)-5,5-difluoro-2-(4-(4-(4-(methylsulfonyl)piperazine-1-carbonyl)phenyl)-2-(perfluoroethyl)oxazol-5-yl)cyclohexanecarboxamide] | 372 | 1.93 |
| N#CC1(NC(=O)[C@@H]2C[C@@H](F)CC[C@H]2c2oc(C(F)(F)F)nc2-c2ccc(N3CCS(=O)(=O)CC3)cc2)CC1 [Example 146, (1R,2R,5S)-N-(1-cyanocyclopropyl)-2-(4-(4-(1,1-dioxidothiomorpholino)phenyl)-2-(trifluoromethyl)oxazol-5-yl)-5-fluorocyclohexane-carboxamide] | 352 | 1.92 |
| CC(C)(C)c1nc(-c2ccc(N3CCS(=O)(=O)CC3)cc2)c([C@@H]2CC[C@H](F)C[C@H]2C(=O)NC2(C#N)CC2)o1 [Example 147, (1R,2R,5S)-2-(2-(tert-butyl)-4-(4-(1,1-dioxidothiomorpholino)phenyl)oxazol-5-yl)-N-(1-cyanocyclopropyl)-5-fluorocyclohexane-carboxamide] | 2410 | 1.5 |
| CC(C)[C@@H](C#N)NC(=O)[C@@H]1CC(F)(F)CC[C@H]1c1oc(C(F)(F)C(F)(F)F)nc1-c1ccc(C(=O)N2CCOCC2)cc1 [Example 148, (1R,2R)-N-((S)-1-cyano-2-methylpropyl)-5,5-difluoro-2-(4-(4-(morpholine-4-carbonyl)phenyl)-2-(perfluoroethyl)oxazol-5-yl)cyclohexanecarboxamide] | 280 | 1.03 |
| N#CC1(NC(=O)[C@@H]2CCC(F)(F)C[C@H]2c2oc(C(F)(F)C(F)(F)F)nc2-c2ccc(N3CCS(=O)(=O)CC3)cc2)CC1 [Example 150, (1R,2R)-N-(1-cyanocyclopropyl)-2-(4-(4-(1,1-dioxidothiomorpholino)phenyl)-2-(perfluoroethyl)oxazol-5-yl)-4,4-difluorocyclohexane-carboxamide] | ≥ 10000 | 4.7 |
| N#CC1(NC(=O)[C@@H]2CC(Cl)(Cl)CC[C@H]2c2oc(C(F)(F)C(F)(F)F)nc2-c2ccc(C(=O)N3CCOCC3)cc2)CC1 [Example 154, (1R,2R)-5,5-dichloro-N-(1-cyanocyclopropyl)-2-(4-(4-(morpholine-4-carbonyl)phenyl)-2-(perfluoroethyl)oxazol-5-yl)cyclohexanecarboxamide] | 259 | 0.68 |

Further lines, results first:

| IC50 [1] [nM] | IC50 [2] [nM] | SMILES |
| --- | --- | --- |
| ≥ 10000 | 48.5 | N#C[C@H](NC(=O)[C@@H]1CCCC[C@H]1c1oc(-c2ccc(F)cc2)nc1-c1ccc(N2CCS(=O)(=O)CC2)cc1)C1CCOCC1 [Example 127, (1R,2R)-N-((R)-cyano(tetrahydro-2H-pyran-4-yl)methyl)-2-(4-(4-(1,1-dioxidothiomorpholino)phenyl)-2-(4-fluorophenyl)oxazol-5-yl)cyclohexanecarboxamide] |
| 692 | 1.94 | N#C[C@@H](NC(=O)[C@@H]1CCCC[C@H]1c1oc(-c2ccc(F)cc2)nc1-c1ccc(N2CCS(=O)(=O)CC2)cc1)C1CCOCC1 [Example 128, (1R,2R)-N-((S)-cyano(tetrahydro-2H-pyran-4-yl)methyl)-2-(4-(4-(1,1-dioxidothiomorpholino)phenyl)-2-(4-fluorophenyl)oxazol-5-yl)cyclohexanecarboxamide] |
| 3930 | 9.12 | CS(=O)(=O)N1CCN(C(=O)c2ccc(-c3nc(-c4ccc(F)cc4F)oc3[C@@H]3CCCC[C@H]3C(=O)NC3(C#N)CC3)cc2)CC1 [Example 129, (1R,2R)-N-(1-cyanocyclopropyl)-2-(2-(2,4-difluorophenyl)-4-(4-(4-(mcthylsulfonyl)piperazine-1-carbonyl)phenyl)oxazol-5-yl)cyclohexanecarboxamide] |
| 70 | 1.25 | N#CC1(NC(=O)[C@@H]2CCCC[C@H]2c2oc(C(F)(F)c3ccccc3)nc2-c2ccc(N3CCS(=O)(=O)CC3)cc2)CC1 [Example 130, (1R,2R)-N-(1-cyanocyclopropyl)-2-(2-(difluoro(phenyl)methyl)-4-(4-(1,1-dioxidothiomorpholino)phenyl)oxazol-5-yl)cyclohexanecarboxamide] |
| 458 | 1.39 | N#CC1(NC(=O)[C@@H]2CCCC[C@H]2c2oc(-c3ccc(F)cc3)nc2-c2ccc(N3CC[S+]([O-])CC3)cc2)CC1 [Example 135, (1R,2R)-N-(1-cyanocyclopropyl)-2-(2-(4-fluorophenyl)-4-(4-(1-oxidothiomorpholino)phenyl)oxazol-5-yl)cyclohexanecarboxamide] |
| 2420 | 3.84 | N#CC1(NC(=O)[C@@H]2CCC(F)(F)C[C@H]2c2oc(-c3ccc(F)cc3)nc2-c2ccc(N3CCS(=O)(=O)CC3)cc2)CC1 [Example 139, (1R,2R)-N-(1-cyanocyclopropyl)-2-(4-(4-(1,1-dioxidothiomorpholino)phenyl)-2-(4-fluorophenyl)oxazol-5-yl)-4,4-difluorocyclohexane-carboxamide] |
| 167 | 0.9 | C[C@@H](C#N)NC(=O)[C@@H]1CCCC[C@H]1c1oc(-c2ccc(F)cc2)nc1-c1ccc(N2CC[S+]([O-])CC2)cc1 [Example 141, (1R,2R)-N-((S)-1-cyanoethyl)-2-(2-(4-fluorophenyl)-4-(4-(1-oxidothiomorpholino)phenyl)oxazol-5-yl)cyclohexanecarboxamide] |
| 628 | 3.11 | CC(C)[C@@H](C#N)NC(=O)[C@@H]1CCCC[C@H]1c1oc(-c2ccc(F)cc2)nc1-c1ccc(N2CC[S+]([O-])CC2)cc1 [Example 151, (1R,2R)-N-((S)-1-cyano-2-methylpropyl)-2-(2-(4-fluorophenyl)-4-(4-(1-oxidothiomorpholino)phenyl)oxazol-5-yl)cyclohexanecarboxamide] |
| 839 | 89.7 | N#CC1(NC(=O)[C@@H]2CCCC[C@H]2c2oc(-c3ccc(F)cc3)nc2-c2ccc(N3CCc4ccccc43)cc2)CC1 [Example 152, (1R,2R)-N-(1-cyanocyclopropyl)-2-(2-(4-fluorophenyl)-4-(4-(indolin-1-yl)phenyl)oxazol-5-yl)cyclohexanecarboxamide] |
| 210 | 0.67 | N#CC1(NC(=O)[C@@H]2CCCC[C@H]2c2oc(-c3ccc(F)cc3)nc2-c2ccc(N3CCS(=O)(=O)CC3)cc2)COC1 [Example 153, (1R,2R)-N-(3-cyanooxetan-3-yl)-2-(4-(4-(1,1-dioxidothiomorpholino)phenyl)-2-(4-fluorophenyl)oxazol-5-yl)cyclohexanecarboxamide] |
| 37 | 0.73 | N#C[C@@H](NC(=O)[C@@H]1CCCC[C@H]1c1oc(-c2ccc(F)cc2)nc1-c1ccc(N2CCS(=O)(=O)CC2)cc1)C1CC1 [Example 155, (1R,2R)-N-((S)-cyano(cyclopropyl)methyl)-2-(4-(4-(1,1-dioxidothiomorpholino)phenyl)-2-(4-fluorophenyl)oxazol-5-yl)cyclohexanecarboxamide] |
| 179 | 2.41 | N#C[C@@H](NC(=O)[C@@H]1CCCC[C@H]1c1oc(-c2ccc(F)cc2)nc1-c1ccc(N2CCS(=O)(=O)CC2)cc1)C1CCCCC1 [Example 156, (1R,2R)-N-((S)-cyano(cyclohexyl)methyl)-2-(4-(4-(1,1-dioxidothiomorpholino)phenyl)-2-(4-fluorophenyl)oxazol-5-yl)cyclohexanecarboxamide] |
